In EP4610269A1, “UROKINASE PLASMINOGEN ACTIVATOR SURFACE RECEPTOR (UPAR) LIGANDS FOR DIAGNOSTIC OR THERAPEUTIC USE” (3B Pharmaceuticals GmbH, priority 2024, dated 2025):
Read-outs that look alike come from different tables or passages of the source. Where a SMILES comes first, the peptide text is derived from it. Bridges are numbered along the chain shown (N, C = ends). [ ]: non-standard residue; d: D form. The star is where a group is joined. X4 = C[N+](C)(CCCC[C@H](NC(=O)CN1CCN(CC(=O)O)CCN(CC(=O)O)CCN(CC(=O)O)CC1)C(=O)*)CCCS(=O)(=O)[O-]; CH3O(CH2CH2O)11CH2CH2CO = COCCOCCOCCOCCOCCOCCOCCOCCOCCOCCOCCOCCC(=O)*; DOTA = O=C(O)CN1CCN(CC(=O)O)CCN(CC(=O)*)CCN(CC(=O)O)CC1; Phe(4-Cl) = N[C@@H](Cc1ccc(Cl)cc1)C(=O)O; Pro(cis-4-F) = O=C(O)[C@@H]1C[C@H](F)CN1; Hyp = O=C(O)[C@@H]1C[C@@H](O)CN1; Pentanoyl(4-Me) = CC(C)CCC(=O)*; Cit = NC(=O)NCCC[C@H](N)C(=O)O; Butoxycarbonyl = CCCCOC(=O)*; Chg = N[C@H](C(=O)O)C1CCCCC1; Pen = CC(C)(S)[C@H](N)C(=O)O; Nle = CCCC[C@H](N)C(=O)O; Orn = NCCC[C@H](N)C(=O)O; Api = NC1(C(=O)O)CCNCC1; Nva = CCC[C@H](N)C(=O)O; Hexanoyl = CCCCCC(=O)*; Pentanoyl = CCCCC(=O)*; Aib = CC(C)(N)C(=O)O

How the values were obtained:
human uPAR (uPAR-Fc) = target: T1, human uPAR (uPAR-Fc) (Homo sapiens, UniProt Q03405); assay: Surface plasmon resonance (SPR) assay, single cycle kinetics; type: binding; conditions: pKD category for uPAR SPR activity assay, uPAR-Fc on Protein A-Chip, 25°C, read-out: pKD CAT (converted)
T1 construct: comprising amino acids Leu23-Arg303 according to UniProt entry Q03405.1; purchased R&D Systems 10378-UK-100
T1 sequence (Q03405 23-303): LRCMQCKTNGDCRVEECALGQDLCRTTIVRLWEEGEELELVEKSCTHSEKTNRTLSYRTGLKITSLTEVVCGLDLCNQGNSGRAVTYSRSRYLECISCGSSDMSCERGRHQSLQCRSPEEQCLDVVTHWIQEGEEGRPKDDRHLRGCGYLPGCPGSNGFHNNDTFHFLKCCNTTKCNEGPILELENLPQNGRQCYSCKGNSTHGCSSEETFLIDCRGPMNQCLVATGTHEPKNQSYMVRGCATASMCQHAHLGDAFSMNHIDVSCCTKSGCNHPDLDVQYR
Experimental: Surface plasmon resonance (SPR) is an optical technique used to measure molecular interactions in real time. SPR occur when plane-polarized light hits a metal film under total internal reflection conditions. SPR signal is directly dependent on the refractive index of the medium on the sensor chip. In an SPR experiment, one molecule (i.e. uPAR) is immobilized on a sensor chip and binding to a second molecule (i.e. test compounds) is measured under flow. The binding of the compound on the surface changes the refractive index. In responses the reflection angle changes as compounds bind and dissociate on the immobilized protein on the surface. This response is measured in resonance units (RU). The RUs are proportional to the number of molecules bound to the surface. […] Kinetic binding constants and equilibrium binding constants can be derived from the sensorgrams.
Surface plasmon resonance (SPR) studies were performed using a Biacore™ T200 or S200 SPR system (Cytiva, formerly GE Life Sciences) to assess binding of compounds to recombinant uPAR protein.
In this example recombinant protein comprising the extracellular domains of human uPAR (uPAR-Fc, R&D Systems, CAT 10378-UK-100, comprising amino acids Leu23-Arg303 according to UniProt entry Q03405.1 and Fc region of human IgG1 at the C-terminus) was immobilized on a Protein A-Chip (Cytiva, CAT 29127555) according to the supplier's instructions. uPAR-Fc was diluted in Running Buffer (10 mM HEPES, 150 mM NaCl, 50 µM EDTA, 0.1% DMSO, 0.05% Tween-20, pH 7.4) to a final concentration of 100 nM and then flushed over the Protein A-Chip to immobilized ~2000 RUs.
Stock solutions of test compounds were prepared by dissolving each compound in DMSO. DMSO stock solution were diluted 1: 1000 in Running Buffer without DMSO. Further sequential dilutions were made with Running Buffer containing 0.1% DMSO. SPR binding analyses were performed in Single Cycle Kinetic (SCK) mode at 25°C. Flow cell without immobilized uPAR-Fc served as reference flow cell. The chip was regenerated with 10 mM Glycine, pH 1,5 to remove the uPAR-Fc from the chip surface after each SCK run. After every three SCK measurements, a blank run with Running Buffer instead of test compound was included to correct for baseline drifts (double reference substraction method). Table 11: SPR protocol steps for SCK with uPAR-Fc immobilized on a Protein A-Chip.
For each test compound, SPR raw data sensorgrams were recorded using the Biacore™ T200 or S200 control software. Sensorgrams were processed and analyzed with the Biacore™ Insight Evaluation software. […] The reference subtracted sensorgram for each test compound was further corrected for baseline drift by subtracting the sensorgram of a reference subtracted blank run (Running Buffer only). The dissociation constant (KD) was calculated from the double reference subtracted sensorgrams using the 1:1 Langmuir binding model. The pKD value (negative decadic logarithm of dissociation constant) was calculated using Microsoft Excel.

[1] = target: T2, uPAR-expressing HEC-265 human endometrial adenocarcinoma cells (Homo sapiens, UniProt Q03405); assay: Competitive FACS binding assay; conditions: pIC50 category of FACS binding
T2 construct: Cell surface uPAR-expressing HEC-265 human endometrial adenocarcinoma cells; host or cells: HEC-265
T2 sequence (Q03405 23-335): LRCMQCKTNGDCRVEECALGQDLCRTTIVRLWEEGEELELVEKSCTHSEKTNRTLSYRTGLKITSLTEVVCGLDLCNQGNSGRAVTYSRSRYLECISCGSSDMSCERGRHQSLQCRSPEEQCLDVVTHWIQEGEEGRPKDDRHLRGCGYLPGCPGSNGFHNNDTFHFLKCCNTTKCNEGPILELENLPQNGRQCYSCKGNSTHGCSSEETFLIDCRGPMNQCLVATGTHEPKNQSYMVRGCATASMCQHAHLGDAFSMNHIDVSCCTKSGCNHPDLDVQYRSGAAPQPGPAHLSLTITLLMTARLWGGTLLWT
Experimental: In order to determine binding of compounds according to the present invention to uPAR-expressing cells, a competitive FACS binding assay was established.
Cell surface uPAR-expressing HEC-265 human endometrial adenocarcinoma cells (Japanese Collection of Research Bioresources, #JCRB1142) were cultured in MEM Eagle with stable glutamine (Pan Biotech, #P04-09500) including 15% fetal bovine serum (Pan Biotech, #P30-3306) and 100 U/ml penicillin and 100 µg/mL streptomycin (Pan Biotech, #P06-07100). Cells were detached with Cell Dissociation Buffer (Thermo Scientific, #13151014) and washed in FACS buffer (PBS (Pan Biotech, #P04-36500) including 1% BSA (SeraCare, #AP-4510-80). Cells were diluted in FACS buffer to a final concentration of 500.000 cells per ml and 200 µl of the cell suspension are transferred to a u-shaped non-binding 96-well plate (Greiner Bio-One, #650901).
For IC50 determination, cells were incubated with 10 nM Bio--Ttds--Ttds--Ttds--Ttds-D-Cha-FsrYLWS-NH2) in the presence of increasing concentrations of non-labeled test compounds at 4°C for 1 hour. Cells were washed twice in FACS buffer. An additional incubation step with 1 µg/mL APC-Streptavidin (Miltenyi; #130-106-791) in 50 µL FACS buffer for 30 minutes on ice was performed followed by two washes with FACS buffer. Cells were resuspended in 200 µl FACS buffer and analyzed in an Attune NxT flow cytometer. Median fluorescence intensities (APC channel) were calculated by Attune NxT software and plotted against peptide concentrations. Four parameter logistic (4PL) curve fitting and pIC50 calculations were performed using ActivityBase software.

SMILES | Kd (human uPAR (uPAR-Fc)) | IC50 [1] | Kd (human uPAR (uPAR-Fc); single cycle kinetics)
CCCCC(=O)N[C@H]1CSSC[C@@H](C(N)=O)NC(=O)[C@H](CCC)NC(=O)[C@H]([C@@H](C)CC)NC(=O)[C@@H]2C[C@@H](O)CN2C(=O)[C@@H]2CCCN2C(=O)[C@H](Cc2ccccc2)NC(=O)[C@H](Cc2ccc(O)cc2)NC(=O)[C@H](CCC(N)=O)NC(=O)C2(CCNCC2)NC1=O [UPAR-186, Pent-[Cys-Apc-Gln-Tyr-Phe-Pro-Hyp-Ile-Nva-Cys]-NH2] (Pentanoyl-C[Api]QYFP[Hyp]I[Nva]C-NH2; disulfide 1-10) | < 0.00158 µM | ≤ 0.01 µM | –
CCCC[C@@H]1NC(=O)[C@H](CCCNC(=N)N)NC(=O)[C@@H](NC(=O)[C@H](CC(C)C)NC(=O)[C@H](CC(=O)O)NC(C)=O)CSSC[C@@H](C(N)=O)NC(=O)[C@H](CC(C)C)NC(=O)[C@H]([C@@H](C)CC)NC(=O)[C@H](C)NC(=O)[C@@H]2CCCN2C(=O)[C@H](Cc2ccccc2)NC(=O)[C@@H](Cc2ccc(O)cc2)NC1=O [UPAR-198, Ac-Asp-Leu-[Cys-Arg-Nle-tyr-Phe-Pro-Ala-Ile-Leu-Cys]-NH2] (Ac-DLCR[Nle][dY]FPAILC-NH2; disulfide 3-12) | > 0.1 µM | ≥ 0.126 µM | –
CCCCCC(=O)N[C@H](C(=O)N[C@@H](CC(C)C)C(=O)N[C@H]1CSSC[C@@H](C(N)=O)NC(=O)[C@H](CC(C)C)NC(=O)[C@H]([C@@H](C)CC)NC(=O)[C@H](C)NC(=O)[C@@H]2CCCN2C(=O)[C@H](Cc2ccccc2)NC(=O)[C@H](Cc2ccc(O)cc2)NC(=O)[C@H](CC(C)C)NC(=O)[C@H](CC(=O)O)NC1=O)[C@@H](C)O [UPAR-318, Hex-Thr-Leu-[Cys-Asp-Leu-Tyr-Phe-Pro-Ala-Ile-Leu-Cys]-NH2] (Hexanoyl-TLCDLYFPAILC-NH2; disulfide 3-12) | < 0.00158 µM | ≤ 0.01 µM | –
CCCCOC(=O)N[C@H]1CSSC[C@@H](C(N)=O)NC(=O)[C@H](CCC)NC(=O)[C@H]([C@@H](C)CC)NC(=O)[C@@H]2C[C@@H](O)CN2C(=O)[C@@H]2C[C@H](F)CN2C(=O)[C@H](Cc2ccccc2)NC(=O)[C@H](Cc2ccc(O)cc2)NC(=O)[C@H](CCCCNC(=O)[C@H](CCCC[N+](C)(C)CCCS(=O)(=O)[O-])NC(=O)CN2CCN(CC(=O)O)CCN(CC(=O)O)CCN(CC(=O)O)CC2)NC(=O)[C@H]([C@@H](C)O)NC1=O [UPAR-422, Butoc-[Cys-Thr-Lys(DOTA-Kzw)-Tyr-Phe-4Cfp-Hyp-Ile-Nva-Cys]-NHz] (Butoxycarbonyl-CTK(X4)YF[Pro(cis-4-F)][Hyp]I[Nva]C-NH2; disulfide 1-10) | – | ≤ 0.01 µM | < 0.00158 µM
CC(C)CCC(=O)N[C@H]1CSSC[C@@H](C(N)=O)NC(=O)[C@H](CC(C)C)NC(=O)[C@H](C)NC(=O)[C@@H](C)NC(=O)[C@@H]2CCCN2C(=O)[C@H](Cc2ccccc2)NC(=O)[C@H](Cc2ccc(O)cc2)NC(=O)[C@H](CCC(N)=O)NC(=O)[C@H](CCCNC(N)=O)NC1=O [UPAR-164, iHex-[Cys-Cit-Gln-Tyr-Phe-Pro-ala-Ala-Leu-Cys]-NH2] ({Pentanoyl(4-Me)}-C[Cit]QYFP[dA]ALC-NH2; disulfide 1-10) | > 0.1 µM | ≥ 0.126 µM | –
CCCCC(=O)N[C@H]1CSSC[C@@H](C(N)=O)NC(=O)[C@H](CCC)NC(=O)[C@H]([C@@H](C)CC)NC(=O)[C@@H]2C[C@@H](O)CN2C(=O)[C@@H]2CCCN2C(=O)[C@H](Cc2ccccc2)NC(=O)[C@H](Cc2ccc(O)cc2)NC(=O)[C@H](CCCCNC(=O)CN2CCN(CC(=O)O)CCN(CC(=O)O)CCN(CC(=O)O)CC2)NC(=O)[C@H](CCCNC(=O)CCOCCOCCOCCOCCOCCOCCOCCOCCOCCOCCOCCOC)NC1=O [UPAR-383, Pent-[Cys-Orn(mPEG12)-Lys(DOTA)-Tyr-Phe-Pro-Hyp-Ile-Nva-Cys]-NHz] (Pentanoyl-C[Orn](CH3O(CH2CH2O)11CH2CH2CO)K(DOTA)YFP[Hyp]I[Nva]C-NH2; disulfide 1-10) | – | ≤ 0.01 µM | < 0.00158 µM
CC[C@H](C)[C@@H]1NC(=O)C(C)(C)NC(=O)[C@@H]2CCCN2C(=O)[C@H](Cc2ccccc2)NC(=O)[C@H](Cc2ccc(O)cc2)NC(=O)[C@H](CCCCNC(=O)CN2CCN(CC(=O)O)CCN(CC(=O)O)CCN(CC(=O)O)CC2)NC(=O)[C@H](CCCNC(N)=O)NC(=O)[C@@H](NC(=O)CCC(C)C)CSSC[C@@H](C(N)=O)NC(=O)[C@H](CC(C)C)NC1=O [UPAR-452, iHex-[Cys-Cit-Lys(DOTA)-Tyr-Phe-Pro-Aib-Ile-Leu-Cys]-NH2] ({Pentanoyl(4-Me)}-C[Cit]K(DOTA)YFP[Aib]ILC-NH2; disulfide 1-10) | – | ≤ 0.01 µM | < 0.00158 µM
CCCCOC(=O)N[C@H]1CSSC[C@@H](C(N)=O)NC(=O)[C@H](CCC)NC(=O)[C@H]([C@@H](C)CC)NC(=O)[C@@H]2C[C@@H](O)CN2C(=O)[C@@H]2C[C@H](F)CN2C(=O)[C@H](Cc2ccc(Cl)cc2)NC(=O)[C@H](Cc2ccc(O)cc2)NC(=O)[C@H](CCCCNC(=O)CN2CCN(CC(=O)O)CCN(CC(=O)O)CCN(CC(=O)O)CC2)NC(=O)[C@H](CCCNC(N)=O)NC1=O [UPAR-304, Butoc-[Cys-Cit-Lys(DOTA)-Tyr-Pcf-4Cfp-Hyp-Ile-Nva-Cys]-NH2] (Butoxycarbonyl-C[Cit]K(DOTA)Y[Phe(4-Cl)][Pro(cis-4-F)][Hyp]I[Nva]C-NH2; disulfide 1-10) | < 0.00158 µM | ≤ 0.01 µM | –
CCCCOC(=O)N[C@H]1CSSC[C@@H](C(N)=O)NC(=O)[C@H](CCC)NC(=O)[C@H](C2CCCCC2)NC(=O)[C@@H]2C[C@@H](O)CN2C(=O)[C@@H]2C[C@H](F)CN2C(=O)[C@H](Cc2ccc(Cl)cc2)NC(=O)[C@H](Cc2ccc(O)cc2)NC(=O)[C@H](CCCCNC(=O)CN2CCN(CC(=O)O)CCN(CC(=O)O)CCN(CC(=O)O)CC2)NC(=O)[C@H](CCCNC(N)=O)NC1=O [UPAR-476, Butoc-[Cys-Cit-Lys(DOTA)-Tyr-Pcf-4Cfp-Hyp-Chg-Nva-Cys]-NH2] (Butoxycarbonyl-C[Cit]K(DOTA)Y[Phe(4-Cl)][Pro(cis-4-F)][Hyp][Chg][Nva]C-NH2; disulfide 1-10) | – | ≤ 0.01 µM | < 0.00158 µM
CCCCC(=O)N[C@@H]1C(=O)N[C@@H](CCCNC(N)=O)C(=O)N[C@@H](CCC(N)=O)C(=O)N[C@@H](Cc2ccc(O)cc2)C(=O)N[C@@H](Cc2ccccc2)C(=O)N2CCC[C@H]2C(=O)N2C[C@H](O)C[C@H]2C(=O)N[C@@H]([C@@H](C)CC)C(=O)N[C@@H](CCC)C(=O)N[C@H](C(N)=O)CSSC1(C)C [UPAR-397, Pent-[Pen-Cit-Gln-Tyr-Phe-Pro-Hyp-Ile-Nva-Cys]-NH2] (Pentanoyl-[Pen][Cit]QYFP[Hyp]I[Nva]C-NH2; disulfide 1-10) | – | ≤ 0.01 µM | < 0.00158 µM
